Values quoted from earlier work as cited in patent US20250287953A1 (CHEMICEUTICAL INC., priority 2021, published 2025).

zinc pyrithione
acute oral toxicity to rodents LD50 (50% lethal dose): 269 mg/kg
